In one data set the target is T1, DNA-PK (Homo sapiens, UniProt P78527).
T1 construct: purchased Invitrogen PR9107A
Put plainly: DNA-PK Assay for Biochemical Enzymatic Inhibition (ADP Glo Kinase assay). In outline:
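Human DNA-PK (25 ng) preincubated 15 min with compounds (ten three-fold dilutions) in HEPES pH 7.5, MgCl2, KCl, calf thymus DNA buffer, then substrate 434.4 μM and ATP 64.4 μM (final) for 60 min at room temperature. ADP-Glo luminescence; percent inhibition fitted by four-parameter regression for IC50.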
For orientation: ADP-Glo first removes unused ATP, then detects ADP through luciferase.

Data set [1] addresses T2, DNA-PK phosphorylation at Serine 2056 (Homo sapiens, UniProt P78527).
T2 construct: host or cells: FaDu
Put plainly: Cellular Assay for Inhibition of DNA-PK Phosphorylation at Serine 2056 (FaDu cells, neocarzinostatin, sandwich ELISA). It counts as cell-based. An outline of the steps: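 FaDu cells were pretreated with compound (0.3% DMSO) for 1 h, then exposed to neocarzinostatin at 1 μg/mL final for 2 h to induce DSBs. Protein-normalized lysates were assayed by MSD sandwich ELISA for total and pSer2056 DNA-PK. IC50 came from variable-slope fits of % inhibition relative to DMSO and NCS controls.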

A short description of data set [2]: Microsomal stability assay, mouse liver microsomes. The following applies: for microsomal CLint at 0.1 uM: male, CD-1, mouse, liver microsomes, pH 7.4, Microsomal Stability Mouse Clint.
Data set [3] has as its target T3, pDNA-PK ser2056 induction in HCT116 spheroids (Homo sapiens, UniProt P78527).
T3 construct: endogenous in cells; host or cells: HCT116 multicellular tumour spheroids
The experiment in a line: Multicellular tumour spheroid + radiation, pDNA-PK inhibition, HCT116. In kind it is cell-based. The following applies: 20 Gy, 20% O2. An outline of the steps:
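HCT116 spheroids (~0.5 mm) in MEM/10% FBS/10 mM glucose, 20% O2, 37 °C, pre-incubated 1 h with compound (10 or 5 μM down to 3.5 nM), irradiated 20 Gy, incubated 2 h more. Cryosections immunostained for pDNA-PK ser2056; EC50 (μM) for 50% reduction of radiation-induced pDNA-PK.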

Data set [4] can be described thus: Microsomal stability assay, human liver microsomes. In kind it is in vitro ADME. The conditions noted are these: for microsomal CLint at 0.1 uM: both sexes, human, liver microsomes. The procedure:
Samples were then mixed and centrifuged. Supernatants were used for HPLC-MS/MS analysis. […] Peak areas corresponding to the test compound were recorded.
On the technique in general: Microsomes from liver hold many membrane-bound enzymes, among them those of drug oxidation.

The nature of data set [5]: Hepatocyte stability assay, mouse hepatocytes. It counts as in vitro ADME. The conditions noted are these: male, CD-1, mouse, cryopreserved hepatocytes, pH 7.3, Example 11. As to the method: (§1) Cryopreserved mouse hepatocytes were obtained from a pool of 10 or more male CD-1 mice. Cryopreserved human hepatocytes were obtained from a pool of 10 or more donors of mixed gender. Final hepatocyte density was 0.7 million viable cells per mL and test compound concentration was 1 uM with a maximum of 0.01% DMSO. Cryopreserved hepatocytes were thawed, washed, and resuspended in Krebs-Heinslet buffer (pH 7.3). The reaction was initiated by adding the test compound into cell suspension and incubated for 0, […], 1, 1.5, and 2 h, respectively, at 37° C./5% CO2. The reaction was stopped by adding acetonitrile into the incubation mixture. Samples were then mixed, transferred completely to another 96-well plate, and centrifuged. Supernatants were used for HPLC-MS/MS analysis. […] Peak areas corresponding to the test compound were recorded.

The nature of data set [6]: Hepatocyte stability assay, human hepatocytes. It counts as in vitro ADME. The following applies: both sexes, human, cryopreserved hepatocytes, pH 7.3; Example 11. The procedure:
as §1

The mark [7] stands for this setting: 0.1 mg/mL microsomes, 0.1 uM compound.
The mark [8] stands for this setting: Example 7, spheroid, cell line HCT115 [sic], read-out: EC50 (pDNA-PK inhibition, immunohistochemical endpoint).
[9] abbreviates: Example 9 Study 2, read-out: Spheroid Cell line: HCT116 Immunohistochemical endpoint pDNA-PK inhibition EC50.
[10] abbreviates: pH 7.4, 0.1 mg/mL microsomes, 0.1 uM compound.

Like-named read-outs stand apart in the source and are kept apart here.

As usually defined, the IC50 is the concentration that inhibits the measured activity by half. Usually microsomal CLint stands for the rate of metabolic loss divided by the concentration. Low values mean slow turnover, high ones rapid turnover. Broadly, the EC50 is the concentration needed to bring the measured effect to its halfway point. Regarding `O=C(N[C@H]1CC[C@@H](Oc2nc(N3CCOCC3)cc3ncccc23)CC1)c1cncs1` [Compound 137, N-((1s,4s)-4-((7-morpholino-1,6-naphthyridin-5-yl)oxy)cyclohexyl)thiazole-5-carboxamide], the half-inhibitory concentration (IC50) at DNA-PK (Table 1) is less than 0.5 nM; in data set [1] (Table 1), 100 to 1000 nM. Besides, the “Microsomal Stability (mouse) % rem. 60 min” value in data set [2] was “G (% remaining = 50-75%)”. Moreover, the intrinsic clearance (microsomal CLint) at 0.1 uM in data set [2] (setting [7]) is less than 116 µL/min/mg; in data set [4] (setting [10]), more than 116 µL/min/mg. Besides, the EC50 in data set [3] (setting [8]) and in data set [3] (setting [9]) was 500 to 1000 nM in each case. In addition, the “Microsomal Stability (human) % rem. 60 min” value in data set [4] is reported as “F (% remaining = 25-50%)”.

Consider `CS(=O)(=O)Nc1cnc2cc(N3CCOCC3)nc(O[C@H]3CC[C@@H](NC(=O)c4ncccn4)CC3)c2c1` [Compound 177, N-((1s,4s)-4-((3-(methylsulfonamido)-7-morpholino-1,6-naphthyridin-5-yl)oxy)cyclohexyl)pyrimidine-2-carboxamide], for which the figures for the IC50 (on DNA-PK (Table 1); in data set [1] (Table 1)) were 0.5 to 1 nM and 1000 to 10000 nM, respectively. The “Microsomal Stability (mouse) % rem. 60 min” value in data set [2] is reported as “G (% remaining = 50-75%)”. Further, the intrinsic metabolic clearance (microsomal CLint) at 0.1 uM in data set [2] (setting [7]) and in data set [4] (setting [10]) was less than 116 µL/min/mg in each case. Also, the EC50 in data set [3] (setting [8]) and in data set [3] (setting [9]) was 1000 to 10000 nM in each case. In addition, the “Microsomal Stability (human) % rem. 60 min” value in data set [4] is on record as “G (% remaining = 50-75%)”.

What is called hepatocyte CLint is the capacity of the preparation to metabolise the compound, expressed as a volume cleared per time. Higher therefore signals faster metabolism. For `CS(=O)(=O)Nc1cnc2cc(N3CCOCC3)nc(O[C@H]3CC[C@@H](Nc4ncccn4)CC3)c2c1` [LFA006, N-[7-Morpholino-5-[4-(pyrimidin-2-ylamino)cyclohexoxy]-1,6-naphthyridin-3-yl]methanesulfonamide], the hepatocyte CLint at 1 uM in data set [5] is more than 8.2 µL/min/1e6 cells. Moreover, the IC50 on DNA-PK (Table 2) is less than 0.5 nM; in data set [1] (Table 2), less than 100 nM. For the same compound, the “Microsomal Stability (mouse) % rem. 60 min” value in data set [2] (Example 11) is “G (% remaining = 50-75%)”. For the same compound, the intrinsic metabolic clearance (microsomal CLint) at 0.1 uM in data set [2] (Example 11) is less than 116 µL/min/mg; in data set [4] (pH 7.4, Example 11), less than 116 µL/min/mg. Moreover, the “Microsomal Stability (human) % rem. 60 min” value in data set [4] (Example 11) is “G (% remaining = 50-75%)”.

`CS(=O)(=O)Nc1cnc2cc(N3CCOCC3)nc(O[C@H]3CC[C@@H](Nc4ncc(C(F)(F)F)cn4)CC3)c2c1` [LFA022, N-[7-Morpholino-5-[4-[[5-(trifluoromethyl)pyrimidin-2-yl]amino]cyclohexoxy]-1,6-naphthyridin-3-yl]methanesulfonamide] came in with an intrinsic metabolic clearance (hepatocyte CLint) at 1 uM in data set [5] of more than 8.2 µL/min/1e6 cells. Further, the half-inhibitory concentration (IC50) on DNA-PK (Table 2) is 0.5 to 1 nM; in data set [1] (Table 2) it was less than 100 nM. Besides, the “Microsomal Stability (mouse) % rem. 60 min” value in data set [2] (Example 11) is recorded as “G (% remaining = 50-75%)”. Also, the microsomal CLint at 0.1 uM in data set [2] (Example 11) is less than 116 µL/min/mg; in data set [4] (pH 7.4, Example 11) it was less than 116 µL/min/mg. Moreover, the “Microsomal Stability (human) % rem. 60 min” value in data set [4] (Example 11) is recorded as “H (% remaining = 75-100%)”.

For the compound `CS(=O)(=O)Nc1cnc2cc(N3CCOCC3)nc(O[C@H]3CC[C@@H](Nc4ncc(C#N)cn4)CC3)c2c1` [LFA025, N-[5-[4-[(5-Cyanopyrimidin-2-yl)amino]cyclohexoxy]-7-morpholino-1,6-naphthyridin-3-yl]methanesulfonamide], the hepatocyte CLint at 1 uM is more than 8.2 µL/min/1e6 cells in data set [5] and less than 8.2 µL/min/1e6 cells in data set [6]. The IC50 on DNA-PK (Table 2) is less than 0.5 nM; in data set [1] (Table 2) it was less than 100 nM. In addition, the “Microsomal Stability (mouse) % rem. 60 min” value in data set [2] (Example 11) is “G (% remaining = 50-75%)”. For the same compound, the microsomal CLint at 0.1 uM in data set [2] (Example 11) was less than 116 µL/min/mg; in data set [4] (pH 7.4, Example 11) it was less than 116 µL/min/mg. In addition, in data set [4] (Example 11), the “Microsomal Stability (human) % rem. 60 min” value is “H (% remaining = 75-100%)”.
